Assay results: patent US7741350B1 (Cara Therapeutics, Inc., priority 2009, dated 2010)
Read-outs that look alike come from different tables or passages of the source.

Key:
[1] = biological target: human CB2 receptor (hCB2) (Homo sapiens, UniProt P34972); experiment: cAMP assay at human CB2 receptor; type: cell-based; settings: hCB2R, maximum measurable range 30 μM
Protocol: (§1) TR-FRET was measured using a 330-380 nm excitation filter, 615 nm and 665 nm emission filters, dichroic minor 380 nm and Z=10 mm. cAMP concentrations in each well were back-calculated from a cAMP standard curve run concurrently during each assay. Each plate contained 16 wells of forskolin stimulated cells and 16 wells of forskolin plus 1 μM CP55,940-treated cells. Concentrations of cAMP were expressed as a percent of the difference of these two groups of wells.

[2] = biological target: human CB1 receptor (hCB1) (Homo sapiens, UniProt P21554); experiment: cAMP assay at human CB1 receptor; type: cell-based; settings: hCB1R; maximum measurable range 30 μM; read-out: EC50 (Potency at Human CB1 determined by cAMP Assay)
Protocol: The ability of each of the compounds to act as agonists or inverse agonists at human CB2 and CB1 receptors (hCB2, hCB1, respectively) and at the rat CB2 receptor (rCB2) was determined by measuring changes in intracellular cyclic AMP (cAMP) levels as described in U.S. Pat. No. 7,517,874.
as §1, with “wells. Concentration-response data including EC50 (the concentration of compound producing 50% of the maximal response) and intrinsic activity (the percent maximal activation compared to full activation by CP55, 940) were determined using a four-parameter non-linear regression algorithm (CambridgeSoft Bioassay).” for “wells.”

male Sprague-Dawley rats = experiment: Anti-hyperalgesia in the Complete Freund's Adjuvant (CFA) model of inflammatory pain; type: in vivo; settings: PO dose 3 mg/kg; 1 hr after dosing; thermal hyperalgesia; rat; read-out: % MPE (1 hr), paw withdrawal latency after CFA injection
Protocol: The anti-hyperalgesic effects of test compounds in the Complete Freund's Adjuvant (CFA) model of inflammatory pain were determined essentially as described in U.S. Pat. No. 7,517,874 using male Sprague-Dawley rats (Hsd: Sprague-Dawley®SD®, Harlan, Indianapolis, Ind.) weighing 200-300 grams.
Test compounds were prepared in a Cremaphor vehicle mixture of 1:1:18 CremophorEL:ethanol:water. Cremophor was obtained from Sigma Chemical (St. Louis, Mo.). The vehicle mixture or vehicle mixture plus test compound were each administered orally.
Assessment of thermal hyperalgesia: Baseline and post-treatment paw withdrawal latencies to a noxious thermal stimulus were measured using a plantar test apparatus (Ugo Basile; obtained from Stoelting, Wood Dale, Ill.). This apparatus generates an infrared heat source that is linearly increasing in intensity. To avoid tissue damage, the power to the heat source was cut off after 20 seconds.
Paw withdrawal latency is defined as the time required for the rat to flick its paw away from the thermal stimulus. Ibuprofen (100 mg/kg, p.o.) was used as the positive control. Paw withdrawal latencies (in seconds) were measured before (naïve paw latency, L1) and 24 hr following (CFA-inflamed paw latency, L2) a single intraplantar injection of 0.1 mL CFA (Sigma-Aldrich, cat F5881, Mycobacterium tuberculosis 1 mg/ml).
Test compounds were administered orally 23 hours following CFA injection; i.e., 1 hour prior to thermal assessment (compound treated CFA-inflamed paw latency, L3). The mean paw withdrawal latency and standard error of the mean (SEM) was determined for the injured paws for each treatment group.
Data were expressed as percent maximum […] effect (% MPE) defined as the percentage of restoration of latency of test compound-treated CFA inflamed paw as compared to the naïve paw latency.

[3] = read-out: EC50 (Potency at Human CB2 determined by cAMP Assay)
[4] = EC50 (Potency at Human CB2 determined by cAMP Assay)

Chain of human CB2 receptor (hCB2) (P34972 whole entry): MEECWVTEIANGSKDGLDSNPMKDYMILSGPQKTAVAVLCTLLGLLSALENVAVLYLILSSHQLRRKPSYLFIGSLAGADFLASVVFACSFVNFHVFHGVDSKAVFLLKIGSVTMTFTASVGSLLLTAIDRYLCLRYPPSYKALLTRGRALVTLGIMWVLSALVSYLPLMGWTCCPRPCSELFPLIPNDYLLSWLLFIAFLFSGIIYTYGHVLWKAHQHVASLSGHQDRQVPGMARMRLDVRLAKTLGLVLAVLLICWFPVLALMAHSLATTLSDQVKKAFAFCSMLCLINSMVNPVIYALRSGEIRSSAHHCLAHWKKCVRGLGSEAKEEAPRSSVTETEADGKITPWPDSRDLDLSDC
Chain of human CB1 receptor (hCB1) (P21554 whole entry): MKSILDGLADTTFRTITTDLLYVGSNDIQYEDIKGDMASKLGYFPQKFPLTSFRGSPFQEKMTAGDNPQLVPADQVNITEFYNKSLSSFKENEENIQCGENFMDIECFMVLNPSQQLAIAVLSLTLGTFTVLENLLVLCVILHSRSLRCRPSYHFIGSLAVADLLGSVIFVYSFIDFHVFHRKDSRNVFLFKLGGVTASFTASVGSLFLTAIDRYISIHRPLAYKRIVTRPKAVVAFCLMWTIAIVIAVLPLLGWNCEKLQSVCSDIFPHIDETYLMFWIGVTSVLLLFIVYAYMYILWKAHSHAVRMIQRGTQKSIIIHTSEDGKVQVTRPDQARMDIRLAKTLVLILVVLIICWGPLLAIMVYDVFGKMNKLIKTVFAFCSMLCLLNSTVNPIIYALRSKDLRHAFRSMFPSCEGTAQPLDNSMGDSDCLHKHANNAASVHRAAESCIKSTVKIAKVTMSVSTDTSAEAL

For CN1CCc2c(c(-c3cc(F)ccc3F)nn2C(=O)N[C@H](C(=O)O)C(C)(C)C)C1 [Compound 81, (S)-2-(3-(2,5-difluorophenyl)-5-methyl-4,5,6,7-tetrahydro-1H-pyrazolo[4,3-c]pyridine-1-carboxamido)-3,3-dimethylbutanoic acid], the EC50 [1, 3] was greater than 30 µM and the EC50 [2] was greater than 30 µM.

CCN1CCc2c(c(-c3cc(F)ccc3F)nn2C(=O)N[C@H](C(=O)O)C(C)(C)C)C1 [Compound 82, (S)-2-(3-(2,5-difluorophenyl)-5-ethyl-4,5,6,7-tetrahydro-1H-pyrazolo[4,3-c]pyridine-1-carboxamido)-3,3-dimethylbutanoic acid] was tested, and the EC50 [1, 4] was greater than 30 µM and the EC50 [2] was greater than 30 µM.

In the case of CCOC(=O)CN1CCc2c(c(-c3cc(F)c(F)cc3F)nn2C(=O)N[C@H](C(=O)NC)C(C)(C)C)C1 [Compound 83, (S)-ethyl 2-(1-(3,3-dimethyl-1-(methylamino)-1-oxobutan-2-ylcarbamoyl)-3-(2,4,5-trifluorophenyl)-6,7-dihydro-1H-pyrazolo[4,3-c]pyridin-5(4H)-yl)acetate], the EC50 [1, 3] is reported as greater than 1 µM and the EC50 [2] is reported as less than 1 µM.

In the case of CNC(=O)[C@@H](NC(=O)n1nc(-c2cc(F)c(F)cc2F)c2c1CCNC2)C(C)(C)C [Compound 84, (S)—N-(3,3-dimethyl-1-(methylamino)-1-oxobutan-2-yl)-3-(2,4,5-trifluorophenyl)-4,5,6,7-tetrahydro-1H-pyrazolo[4,3-c]pyridine-1-carboxamide], the EC50 [1, 4] is reported as less than 1 µM and the EC50 [2] is reported as less than 1 µM.

With CNC(=O)[C@@H](NC(=O)n1nc(-c2cc(F)c(F)cc2F)c2c1CCN(CCO)C2)C(C)(C)C [Compound 85, (S)—N-(3,3-dimethyl-1-(methylamino)-1-oxobutan-2-yl)-5-(2-hydroxyethyl)-3-(2,4,5-trifluorophenyl)-4,5,6,7-tetrahydro-1H-pyrazolo[4,3-c]pyridine-1-carboxamide] the EC50 [1, 4] was less than 1 µM and the EC50 [2] was less than 1 µM.

CC(C)(C)[C@H](NC(=O)n1nc(-c2cc(Cl)ccc2F)c2c1CCOC2)C(=O)NCCO [Compound 86, (S)-3-(5-chloro-2-fluorophenyl)-N-(1-(2-hydroxyethylamino)-3,3-dimethyl-1-oxobutan-2-yl)-6,7-dihydropyrano[4,3-c]pyrazole-1(4H)-carboxamide] gave an EC50 [1, 4] of less than 1 µM, an inhibition in vivo at 3 mg/kg (male Sprague-Dawley rats) of 27% and an EC50 [2] of less than 1 µM.

CC(C)(C)[C@H](NC(=O)n1nc(-c2cc(F)ccc2F)c2c1CCOC2)C(=O)NCCO [Compound 87, (S)-3-(2,5-difluorophenyl)-N-(1-(2-hydroxyethylamino)-3,3-dimethyl-1-oxobutan-2-yl)-6,7-dihydropyrano[4,3-c]pyrazole-1(4H)-carboxamide] gave an EC50 [1, 4] of less than 1 µM, an inhibition in vivo at 3 mg/kg (male Sprague-Dawley rats) of 50% and an EC50 [2] of less than 1 µM.

In the case of CC(C)(C)[C@H](NC(=O)n1nc(-c2ccc(Cl)cc2F)c2c1CCOC2)C(=O)NCCO [Compound 88, (S)-3-(4-chloro-2-fluorophenyl)-N-(1-(2-hydroxyethylamino)-3,3-dimethyl-1-oxobutan-2-yl)-6,7-dihydropyrano[4,3-c]pyrazole-1(4H)-carboxamide], the EC50 [1, 3] is reported as less than 1 µM, the inhibition in vivo at 3 mg/kg (male Sprague-Dawley rats) is reported as 47% and the EC50 [2] is reported as less than 1 µM.

Work on CN1CCc2c(-c3cc(F)c(F)cc3F)nn(C(=O)N[C@H](C(=O)NCCO)C(C)(C)C)c2C1 [Compound 89, (S)—N-(1-(2-hydroxyethylamino)-3,3-dimethyl-1-oxobutan-2-yl)-6-methyl-3-(2,4,5-trifluorophenyl)-4,5,6,7-tetrahydro-1H-pyrazolo[3,4-c]pyridine-1-carboxamide] yielded an EC50 [1, 4] of less than 1 µM, an inhibition in vivo at 3 mg/kg (male Sprague-Dawley rats) of 52% and an EC50 [2] of less than 1 µM.

CN1CCc2c(-c3ccc(F)c(F)c3)nn(C(=O)N[C@H](C(=O)NCCO)C(C)(C)C)c2C1 [Compound 90, (S)-3-(3,4-difluorophenyl)-N-(1-(2-hydroxyethylamino)-3,3-dimethyl-1-oxobutan-2-yl)-6-methyl-4,5,6,7-tetrahydro-1H-pyrazolo[3,4-c]pyridine-1-carboxamide] was tested, and the EC50 [1, 3] was greater than 1 µM, the inhibition in vivo at 3 mg/kg (male Sprague-Dawley rats) was 25% and the EC50 [2] was less than 1 µM.

Compound CN1CCCc2c1c(-c1ccc(F)c(F)c1)nn2C(=O)N[C@H](C(=O)NCCO)C(C)(C)C [Compound 91, (S)-3-(3,4-difluorophenyl)-N-(1-(2-hydroxyethylamino)-3,3-dimethyl-1-oxobutan-2-yl)-4-methyl-4,5,6,7-tetrahydro-1H-pyrazolo[4,3-b]pyridine-1-carboxamide] has an EC50 [1, 3] of less than 1 µM, an inhibition in vivo at 3 mg/kg (male Sprague-Dawley rats) of 47% and an EC50 [2] of less than 1 µM.

With CN1CCCc2c1c(-c1cc(F)ccc1F)nn2C(=O)N[C@H](C(=O)NCCO)C(C)(C)C [Compound 92, (S)-3-(2,5-difluorophenyl)-N-(1-(2-hydroxyethylamino)-3,3-dimethyl-1-oxobutan-2-yl)-4-methyl-4,5,6,7-tetrahydro-1H-pyrazolo[4,3-b]pyridine-1-carboxamide] the EC50 [1, 4] was less than 1 µM, the inhibition in vivo at 3 mg/kg (male Sprague-Dawley rats) was 23% and the EC50 [2] was less than 1 µM.

With CN1CCc2c(-c3cc(F)ccc3F)nn(C(=O)N[C@H](C(=O)NCCO)C(C)(C)C)c2C1 [Compound 93, (S)-3-(2,5-difluorophenyl)-N-(1-(2-hydroxyethylamino)-3,3-dimethyl-1-oxobutan-2-yl)-6-methyl-4,5,6,7-tetrahydro-1H-pyrazolo[3,4-c]pyridine-1-carboxamide] the EC50 [1, 4] was less than 1 µM, the inhibition in vivo at 3 mg/kg (male Sprague-Dawley rats) was 28% and the EC50 [2] was less than 1 µM.

With CN1CCCc2c1c(-c1cc(Cl)ccc1F)nn2C(=O)N[C@H](C(=O)NCCO)C(C)(C)C [Compound 94, (S)-3-(5-chloro-2-fluorophenyl)-N-(1-(2-hydroxyethylamino)-3,3-dimethyl-1-oxobutan-2-yl)-4-methyl-4,5,6,7-tetrahydro-1H-pyrazolo[4,3-b]pyridine-1-carboxamide] the EC50 [1, 4] was less than 1 µM, the inhibition in vivo at 3 mg/kg (male Sprague-Dawley rats) was 27% and the EC50 [2] was less than 1 µM.

Work on CC(C)(C)[C@H](NC(=O)n1nc(-c2ccc(F)c(F)c2)c2c1COCC2)C(=O)NCCO [Compound 95, (S)-3-(3,4-difluorophenyl)-N-(1-(2-hydroxyethylamino)-3,3-dimethyl-1-oxobutan-2-yl)-4,5-dihydropyrano[3,4-c]pyrazole-1(7H)-carboxamide] yielded an EC50 [1, 4] of less than 1 µM, an inhibition in vivo at 3 mg/kg (male Sprague-Dawley rats) of 41% and an EC50 [2] of less than 1 µM.

With CC(C)(C)[C@H](NC(=O)n1nc(-c2cc(Cl)ccc2F)c2c1COCC2)C(=O)NCCO [Compound 96, (S)-3-(5-chloro-2-fluorophenyl)-N-(1-(2-hydroxyethylamino)-3,3-dimethyl-1-oxobutan-2-yl)-4,5-dihydropyrano[3,4-c]pyrazole-1(7H)-carboxamide] the EC50 [1, 4] was less than 1 µM, the inhibition in vivo at 3 mg/kg (male Sprague-Dawley rats) was 52% and the EC50 [2] was less than 1 µM.

CC(C)(C)[C@H](NC(=O)n1nc(-c2cc(F)c(F)cc2F)c2c1COCC2)C(=O)NCCO [Compound 97, (S)—N-(1-(2-hydroxyethylamino)-3,3-dimethyl-1-oxobutan-2-yl)-3-(2,4,5-trifluorophenyl)-4,5-dihydropyrano[3,4-c]pyrazole-1(7H)-carboxamide] was tested, and the EC50 [1, 4] was less than 1 µM and the EC50 [2] was less than 1 µM.

CCOC(=O)CN1CCCc2c1c(-c1ccc(F)c(F)c1)nn2C(=O)N[C@H](C(=O)NC)C(C)(C)C [Compound 100, (S)-ethyl 2-(3-(3,4-difluorophenyl)-1-(3,3-dimethyl-1-(methylamino)-1-oxobutan-2-ylcarbamoyl)-6,7-dihydro-1H-pyrazolo[4,3-b]pyridin-4(5H)-yl)acetate] showed an EC50 [1, 4] of less than 1 µM and an EC50 [2] of less than 1 µM.
